In assay [1] the test system is HCC4017. Put plainly: Cytotoxicity against human HCC4017 cells assessed as cell growth inhibition. Format: functional, cell-based.
Assay [2] is described as follows: Cytotoxicity against human HCC4018 cells assessed as cell growth inhibition. The class given is functional, cell-based.
For assay [3], the target named is Histone deacetylase 1 (Homo sapiens, UniProt Q13547). Put plainly: Inhibition of HDAC1 (unknown origin).
The subject of assay [4] is HepG2. The experiment in a line: Cytotoxicity against human HepG2 cells assessed as inhibition of cell growth. The class given is functional, cell-based.
Assay [5] deals with C6. Put plainly: Cytotoxicity against rat C6 cells assessed as inhibition of cell growth. The class given is functional, cell-based.
In assay [6] the test system is HeLa. Put plainly: Antiproliferative activity against human HeLa cells assessed as cell growth inhibition. Format: functional, cell-based.
The test system of assay [7] is A549. The experiment in a line: Antiproliferative activity against human A549 cells assessed as cell growth inhibition. The class given is functional, cell-based.
The subject of assay [8] is MDA-MB-231. Put plainly: Cytotoxicity against human MDA-MB-231 cells assessed as cell growth inhibition. The class given is functional, cell-based.
Assay [9] deals with MCF7. The experiment in a line: Cytotoxicity against human MCF7 cells assessed as inhibition of cell growth. Format: functional, cell-based.
The subject of assay [10] is DU-145. Put plainly: Cytotoxicity against human DU-145 cells assessed as cell growth inhibition. Format: functional.
Assay [11] relates to DB. Put plainly: Antiproliferative activity against human DB cells assessed as cell growth inhibition. Format: functional, cell-based.
Assay [12] concerns MV4-11. Put plainly: Antiproliferative activity against human MV4-11 cells assessed as cell growth inhibition. The class given is functional, cell-based.
The target of assay [13] is T1, Prostaglandin G/H synthase 2 (Homo sapiens, UniProt P35354).
T1 sequence (P35354 whole entry): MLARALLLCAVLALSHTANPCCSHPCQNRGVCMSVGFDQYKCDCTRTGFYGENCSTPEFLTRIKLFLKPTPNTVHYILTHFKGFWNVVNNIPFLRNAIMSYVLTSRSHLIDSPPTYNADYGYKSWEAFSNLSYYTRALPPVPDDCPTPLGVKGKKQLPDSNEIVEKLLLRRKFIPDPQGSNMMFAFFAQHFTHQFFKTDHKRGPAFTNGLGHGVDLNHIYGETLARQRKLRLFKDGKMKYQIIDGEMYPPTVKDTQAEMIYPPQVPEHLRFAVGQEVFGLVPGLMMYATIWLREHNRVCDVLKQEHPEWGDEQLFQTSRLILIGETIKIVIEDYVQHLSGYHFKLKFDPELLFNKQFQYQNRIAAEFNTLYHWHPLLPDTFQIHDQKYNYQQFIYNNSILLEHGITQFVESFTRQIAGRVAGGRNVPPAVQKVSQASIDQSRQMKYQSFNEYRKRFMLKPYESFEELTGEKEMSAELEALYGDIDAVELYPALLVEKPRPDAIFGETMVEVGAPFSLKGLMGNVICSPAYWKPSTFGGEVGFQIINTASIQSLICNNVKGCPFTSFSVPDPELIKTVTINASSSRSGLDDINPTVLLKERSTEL
Put plainly: Inhibition of COX-2 (unknown origin).

Assay [14] concerns the target Prostaglandin G/H synthase 1 (Homo sapiens, UniProt P23219). Put plainly: Inhibition of COX-1 (unknown origin).
Assay [15] has as its system SiHa. The experiment in a line: Antiproliferative activity against human SiHa cells assessed as cell growth inhibition. Format: functional, cell-based.
Assay [16] can be described thus: Activation of procaspase-3 (unknown origin). Further details: species or system Homo sapiens.
Assay [17] concerns MKN-45. Put plainly: Antiproliferative activity against human MKN-45 cells assessed as inhibition of cell growth. Format: functional, cell-based.
Assay [18] deals with HT-29. Put plainly: Antiproliferative activity against human HT-29 cells assessed as inhibition of cell growth. The class given is functional, cell-based.
Assay [19] has as its system SK-N-SH. The experiment in a line: Antiproliferative activity against human SK-N-SH cells assessed as inhibition of cell growth. Format: functional, cell-based.
The subject of assay [20] is NCI-H226. The experiment in a line: Antiproliferative activity against human NCI-H226 cells assessed as inhibition of cell growth. Format: functional, cell-based.
For assay [21], the system named is MDA-MB-231. The experiment in a line: Potency index, ratio of PAC-1 IC50 to test compound IC50 for antiproliferative activity against human MDA-MB-231 cells assessed as inhibition of cell growth. Format: functional. The conditions noted are these: pooled result: one value given for 5 cell lines, strains, targets or settings.

Here are results for 22 compounds from ChEMBL document CHEMBL5230113, “2-substituted benzothiazoles as antiproliferative agents: Novel insights on structure-activity relationships” (Eur J Med Chem, 2020).

What is called IC50 is the concentration at which inhibition is half-maximal. As a reminder, the GI50 is the concentration that inhibits growth by half. As usually defined, the CC50 is the concentration that lowers cell viability or growth by half. In general, EC50 refers to the concentration at which the effect is half-maximal.

Converted amounts (≈) assume the structure as drawn.

Prostaglandin G/H synthase 1, sequence (P23219 whole entry): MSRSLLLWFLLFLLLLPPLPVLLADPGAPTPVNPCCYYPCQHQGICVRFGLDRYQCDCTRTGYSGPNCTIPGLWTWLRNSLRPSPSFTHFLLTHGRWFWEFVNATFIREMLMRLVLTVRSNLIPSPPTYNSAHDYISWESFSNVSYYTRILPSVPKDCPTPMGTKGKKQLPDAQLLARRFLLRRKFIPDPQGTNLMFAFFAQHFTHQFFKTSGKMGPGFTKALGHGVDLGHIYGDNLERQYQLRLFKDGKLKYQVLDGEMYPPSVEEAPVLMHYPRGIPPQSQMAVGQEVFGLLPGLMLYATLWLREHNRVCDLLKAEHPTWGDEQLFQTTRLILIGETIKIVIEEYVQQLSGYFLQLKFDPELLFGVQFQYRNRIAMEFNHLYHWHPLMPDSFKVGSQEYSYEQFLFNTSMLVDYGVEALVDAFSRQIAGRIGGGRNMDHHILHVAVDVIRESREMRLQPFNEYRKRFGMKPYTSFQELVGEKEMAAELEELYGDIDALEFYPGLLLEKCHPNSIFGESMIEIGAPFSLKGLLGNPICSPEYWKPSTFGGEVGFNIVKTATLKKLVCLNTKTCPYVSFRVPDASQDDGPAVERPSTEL
Histone deacetylase 1, sequence (Q13547 whole entry): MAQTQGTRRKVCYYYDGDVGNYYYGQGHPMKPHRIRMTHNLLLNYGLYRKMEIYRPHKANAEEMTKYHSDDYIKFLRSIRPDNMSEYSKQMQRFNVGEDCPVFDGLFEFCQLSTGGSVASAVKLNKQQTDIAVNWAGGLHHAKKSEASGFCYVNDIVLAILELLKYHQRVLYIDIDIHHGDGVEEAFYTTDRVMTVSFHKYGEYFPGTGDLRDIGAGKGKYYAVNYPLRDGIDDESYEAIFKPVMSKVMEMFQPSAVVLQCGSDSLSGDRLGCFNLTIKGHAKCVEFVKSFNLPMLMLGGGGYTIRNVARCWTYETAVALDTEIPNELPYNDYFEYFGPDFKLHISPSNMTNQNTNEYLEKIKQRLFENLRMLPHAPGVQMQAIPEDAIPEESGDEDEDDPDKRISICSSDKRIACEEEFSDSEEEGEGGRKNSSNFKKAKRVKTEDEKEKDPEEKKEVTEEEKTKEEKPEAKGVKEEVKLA

Consider `O=C(NO)c1ccc(S(=O)(=O)N2CCN(c3nc4ccccc4s3)CC2)cc1`, for which the IC50 in assay [1] was 1630 nM; in assay [2], 4000 nM; in assay [3], 4800 nM.
With `Cc1ccc(Nn2c(SCC(=O)Nc3nc4ccc(F)cc4s3)nc(C)c2C)cc1`, the IC50 in assay [4] (hepg2) stood at 31.7 µg/mL; in assay [5], 16.3 µg/mL (≈ 37 µM).
Consider `Cc1ccc(Nn2c(SCC(=O)Nc3nc4ccc(C)cc4s3)nc(C)c2C)cc1`, for which, in assay [4] (hepg2), the IC50 worked out at 26.3 µg/mL.
With `O=C(CN1CCN(c2ccccc2F)CC1)Nc1ccc(-c2nc3ccccc3s2)cc1`, the GI50 in assay [6], in assay [7] and in [8] was 200 nM throughout.
As for `Cc1ccc2nc(N/N=C/c3cccnc3Nc3ccccc3)sc2c1`, the IC50 in [9] is 1690 nM.
Turning to `Cc1ccc2nc(NC(=O)CSc3nc(C)c(C)n3Nc3ccc([N+](=O)[O-])cc3)sc2c1`, in assay [5], the IC50 is 15.7 µg/mL (≈ 33.4 µM).
In the case of `O=C(CNS(=O)(=O)c1cc(Cl)ccc1Cl)N1CCN(c2nc3ccccc3s2)CC1`, the CC50 in [10] was determined as 9000 nM; in assay [4] (Homo sapiens, HepG2), 8000 nM.
`O=C(CN1CCN(c2ccccc2)CC1)Nc1ccc(-c2nc3ccccc3s2)cc1`: the GI50 in assay [6], in [7] and in [8] was 200 nM throughout.
Take `O=C(Nc1cccc(-c2nc3ccccc3s2)c1)c1cccnc1`: the IC50 in assay [4] (Homo sapiens, HepG2, read-out: IC50) was found to be 15000 nM; in assay [6] it was 15000 nM; in [11], 15000 nM; in assay [12], 7510 nM; in assay [9], 15000 nM; in [7] it was 5420 nM.
Take `CC(=O)N1N=C(C)/C(=N\Nc2cccc(-c3nc4ccccc4s3)c2)C1=O`: the IC50 in [13] came to 100 nM; in [9], 12300 nM; in assay [7] it was 12300 nM; in assay [14], 9560 nM.
`COc1cccc(-n2cc(CNc3ccc(-c4nc5ccccc5s4)cc3)nn2)c1`: the GI50 in assay [6], in assay [7] and in assay [8] was 200 nM throughout.
`Clc1cccc(-n2cc(CNc3ccc(-c4nc5ccccc5s4)cc3)nn2)c1`: the GI50 in assay [6], in [7] and in assay [8] was 200 nM each time.
On to `COc1ccc(Cl)cc1C(=O)Nc1ccc(-c2nc3ccccc3s2)cc1`, for which the IC50 in assay [15] was determined as 6130 nM.
As to `Cc1ccc(Nn2c(SCC(=O)Nc3nc4ccc(Cl)cc4s3)nc(C)c2C)cc1`, the concentration for half-maximal inhibition (IC50) in assay [4] (hepg2) turned out to be 29.3 µg/mL.
As for `Cc1nc(SCC(=O)Nc2nc3ccc(F)cc3s2)n(Nc2ccc([N+](=O)[O-])cc2)c1C`, in [4] (hepg2), the IC50 was > 500 µg/mL.
As to `CC1=NN(c2ccccc2)C(=O)/C1=N/Nc1cccc(-c2nc3ccccc3s2)c1`, the IC50 in [13] amounted to 100 nM; in assay [9], 12300 nM; in assay [7] it was 12300 nM; in assay [14], 9560 nM.
Regarding `Cc1nc(SCC(=O)Nc2nc3ccccc3s2)n(Nc2ccc([N+](=O)[O-])cc2)c1C`, the IC50 in assay [4] (hepg2) was 28.7 µg/mL; in [5] it was 24.3 µg/mL (≈ 53.5 µM).
Compound `CN(C)Cc1ccc2nc(NC(=O)N/N=C/c3ccc(OCc4ccc(C(F)(F)F)cc4)cc3O)sc2c1` came in with an EC50 in [16] of 310 nM. Moreover, the IC50 in [17], in assay [18], in assay [19], in assay [20] and in assay [8] was 240 nM in each case. Besides, the “Ratio IC50” value in assay [21] is recorded as 4.24.
As to `Cc1ccc(N2CCN(CC(=O)Nc3ccc(-c4nc5ccccc5s4)cc3)CC2)cc1`, the GI50 in assay [6], in [7] and in [8] was 200 nM throughout.
Turning to `O=C(CNS(=O)(=O)c1ccc(Cl)cc1)N1CCN(c2nc3ccccc3s2)CC1`, in [10], the CC50 was found to be 8000 nM.
As to `Nc1ccc(-c2nc3ccccc3s2)cc1`, the IC50 in [9] turned out to be 0.3 nM.
`C=CCc1cccc(/C=N/NC(=O)CN2CCN(Cc3ccccc3)CC2)c1O` [PAC-1] had an EC50 in assay [16] of 410 nM.
